According to patent US12577247B2 (BUGWORKS RESEARCH, INC., priority 2021, dated 2026):
pEC50, pIC50: −log10 of the molar value. Where two headings read alike, the source gives them in different places.

Tests used:
A2B receptor [1] = target: T1, A2B receptor (Homo sapiens, UniProt P29275); assay: A2bR antagonism IC50, cAMP TR-FRET in HEK-293 cells, high concentration of adenosine (30 μM); conditions: A2BR IC50 (nM) (@30 μM Adenosine), HEK-293 cells expressing A2B receptor; agonist adenosine 30 μM; 2% HSA; inhibition of cAMP;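 further: compounds preincubated 10 min with cells, then adenosine stimulation 30 min at room temperature in buffer with Rolipram 100 µM and EHNA 30 µM, TR-FRET read after 1 h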
T1 sequence (P29275 1-332): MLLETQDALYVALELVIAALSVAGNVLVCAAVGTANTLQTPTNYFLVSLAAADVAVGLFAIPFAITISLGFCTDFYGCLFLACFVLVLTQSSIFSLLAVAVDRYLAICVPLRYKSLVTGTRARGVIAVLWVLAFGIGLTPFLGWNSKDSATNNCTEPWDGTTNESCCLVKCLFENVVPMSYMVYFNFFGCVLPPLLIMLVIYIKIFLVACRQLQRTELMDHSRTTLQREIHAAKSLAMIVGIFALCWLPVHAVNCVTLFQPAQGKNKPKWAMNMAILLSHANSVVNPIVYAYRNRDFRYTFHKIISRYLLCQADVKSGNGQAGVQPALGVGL

A2A receptor [2] = target: T2, A2A receptor (Homo sapiens, UniProt P29274); assay: A2aR antagonism IC50, cAMP TR-FRET in HEK-293 cells, high concentration of adenosine (30 μM); assay type: cell-based; conditions: HEK-293 cells expressing A2A receptor; agonist adenosine 30 μM; 2% HSA; inhibition of cAMP; read-out: A2AR IC50 (nM) (@30 μM Adenosine);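 further: compounds added 10 min before adenosine, then 30 min stimulation at room temperature in buffer with 100 µM rolipram and 30 µM EHNA, signal read 1 h after detection reagents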
T2 construct: host or cells: HEK-293
T2 sequence (P29274 whole entry): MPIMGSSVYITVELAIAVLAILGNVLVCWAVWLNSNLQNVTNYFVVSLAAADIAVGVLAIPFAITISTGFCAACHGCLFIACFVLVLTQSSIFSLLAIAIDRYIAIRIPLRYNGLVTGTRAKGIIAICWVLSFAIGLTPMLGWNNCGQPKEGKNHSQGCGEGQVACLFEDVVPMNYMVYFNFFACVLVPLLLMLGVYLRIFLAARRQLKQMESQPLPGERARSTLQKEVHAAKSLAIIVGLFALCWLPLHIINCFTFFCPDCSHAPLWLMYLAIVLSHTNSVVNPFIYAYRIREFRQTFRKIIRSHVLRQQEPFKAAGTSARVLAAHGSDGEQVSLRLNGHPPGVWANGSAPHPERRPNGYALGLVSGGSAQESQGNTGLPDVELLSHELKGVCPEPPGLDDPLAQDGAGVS
Description: A Time-Resolved Fluorescence Energy Transfer (TR-FRET) assay was used to show the inhibition of this cAMP production in HEK cells upon treatment with compounds of the Formula I of the present disclosure.
HEK-293 cells expressing A2A receptor (#ES-011-C) or A2B receptor (#ES 013-C) were obtained from PerkinElmer. Cells were maintained in DMEM medium supplemented with 10% FBS and 200 μg/mL of G418 at 37° C. and 5% CO2. The cells were cultured in antibiotic free medium for a period of 16-20 hours prior to the assay. All subsequent steps of the assay are performed at room temperature (22-24° C.). […] About 1500 cells per well were pre-incubated for 10 minutes with the compounds of the present invention before adding the agonist Adenosine at a high concentration (30 μM) for a total stimulation time of 30 minutes. […] The assays were conducted in a stimulation buffer containing 1×DMEM, 5 mM HEPES, 2% Human serum albumin (HSA), 100 μM Rolipram and 30 μM erythro-9-(2-hydroxy-3-nonyl) adenine (EHNA). Serial dilutions of compounds were made in stimulation buffer to achieve a final concentration of high micromolar in a reaction volume of 10 μL. The total reaction volume was 10 μL (5 μL of cells, 2.5 μL of antagonist and 2.5 μL of agonist). […] The stimulation was ended, and the reaction completed by adding 5 μL of 4× Eu-cAMP tracer working solution and 5 μL of 4× ULight-anti-cAMP working solution. The TR FRET signal was measured after 1-hour incubation using a Tecan M1000 or a PerkinElmer Victor Nivo plate reader.

A2A receptor [3] = target: T2, A2A receptor; assay: A2aR antagonism IC50, cAMP TR-FRET (Lance Ultra) in HEK-293 cells, NECA as agonist; assay type: cell-based; conditions: A2AR IC50 (nM) (@5 nM NECA), HEK-293 cells expressing A2A receptor; agonist NECA 5 nM (EC90); inhibition of cAMP;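 further: compounds tested from 10 µM down to 0.08 nM in buffer with Rolipram at room temperature, TR-FRET cAMP signal read 1 h after adding Eu-cAMP tracer and ULight anti-cAMP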
[4] = tested on: human Peripheral blood mononuclear cells (PBMCs); assay: Cytokine restoration assay in human PBMCs (IL-2, TNF-α) under NECA; assay type: cell-based; conditions: PBMC, NECA 5 μM, anti CD3/28 Dynabeads, 48 hours
Source text: The ability of the invention compounds disclosed herein to restore the cytokines (IL-2 and TNF-α) release under adenosine agonist (NECA) environment evaluated using human Peripheral blood mononuclear cells (PBMCs). Peripheral blood was collected from healthy adult individuals in vacutainer tube. Peripheral blood mononuclear cells (PBMCs) were isolated via density gradient centrifugation, which uses Ficoll (Histopaque buffer) combined with short, low-speed centrifugation, to separate different cell populations. Diluted defibrinated blood was layered on a Ficoll and centrifuged at 1800 rpm for 20 minutes at 22° C. Differential migration of cells during centrifugation results in the formation of layers containing different cell types. The bottom layer contains erythrocytes. Remaining cells (i.e., lymphocytes, monocytes, and platelets) that are not dense enough to penetrate the Ficoll media layers (densities of 1.0770 g/ml), forms a buffy coat at the interface between the upper plasma layer and the Ficoll media layer. After carefully collected the buffy coat excess of platelets, Ficoll and plasma were removed by washing it with isotonic sterile phosphate buffered saline (PBS) and resulting cell pellet was resuspended in RPMI media with 5% FBS an P/S. The isolated PBMCs were allowed to be conditioned for an hour at 37° C. in a CO2 incubator. These cells were subsequently used for specific downstream assay. Isolated PBMC (3×10^5 cells/200 μl) were plated in 96 well microtiter plate in RPMI media with 5% FBS in presence of 100 units of penicillin plus 100 μg/ml streptomycin. NECA was added at a final concentration of 5 μM, control wells were maintained without NECA suppression (i.e., no NECA control). The assay plates were incubated at 37° C. for 4 hours in a CO2 incubator. Various concentrations of test compounds were added into respective wells in triplicates. Pre-washed anti CD3/28 Dynabeads (2.5 μL) was added for CD4 and CD8 + T-cell stimulation (to obtain a bead-to-cell ratio of 1:1). The assay plate was incubated at 37° C. in 5% CO2 and 20% ambient O2 maximum for 48 hours. At the end of 48 hours, the activated PBMC were harvested, and culture supernatants were used directly for further analysis. Forty-eight hours post treatment, 15 μL of cell-free supernatant was collected and assayed for secreted IL2 using the human Interleukin 2 (hIL2)—LANCE Ultra Detection Kit (Perkin Elmer). Similarly, level of soluble Tumor Necrosis Factor alpha (TNFα) was determined using human TNFα LANCE Ultra Detection Kit (Perkin Elmer). T-FRET signal was measured with Tecan spark multimode plate reader. Data was analyzed by graph-pad prism9. EC50 s of the compounds of Formula (I) in restoration of cytokine release under adenosine agonist from the human PBMCS are presented in Table 2

A2B receptor [5] = target: T1, A2B receptor; assay: A2bR antagonism IC50, cAMP TR-FRET (Lance Ultra) in HEK-293 cells, NECA as agonist; assay type: cell-based; parameters: host or cells: HEK-293; conditions: HEK-293 cells expressing A2B receptor; agonist NECA 30 nM (EC90); inhibition of cAMP
hERG potassium channel = target: T3, hERG potassium channel (Homo sapiens, UniProt Q12809); assay: hERG inhibition assay, Qpatch HTX automated electrophysiology; assay type: cell-based; conditions: CHO cell line stably expressing hERG; whole-cell patch clamp; room temperature
T3 construct: a Chinese Hamster Ovary cell line stably expressing the full-length hERG potassium channel; expressed in transfected cells; host or cells: Chinese Hamster Ovary cell line
T3 sequence (Q12809 whole entry): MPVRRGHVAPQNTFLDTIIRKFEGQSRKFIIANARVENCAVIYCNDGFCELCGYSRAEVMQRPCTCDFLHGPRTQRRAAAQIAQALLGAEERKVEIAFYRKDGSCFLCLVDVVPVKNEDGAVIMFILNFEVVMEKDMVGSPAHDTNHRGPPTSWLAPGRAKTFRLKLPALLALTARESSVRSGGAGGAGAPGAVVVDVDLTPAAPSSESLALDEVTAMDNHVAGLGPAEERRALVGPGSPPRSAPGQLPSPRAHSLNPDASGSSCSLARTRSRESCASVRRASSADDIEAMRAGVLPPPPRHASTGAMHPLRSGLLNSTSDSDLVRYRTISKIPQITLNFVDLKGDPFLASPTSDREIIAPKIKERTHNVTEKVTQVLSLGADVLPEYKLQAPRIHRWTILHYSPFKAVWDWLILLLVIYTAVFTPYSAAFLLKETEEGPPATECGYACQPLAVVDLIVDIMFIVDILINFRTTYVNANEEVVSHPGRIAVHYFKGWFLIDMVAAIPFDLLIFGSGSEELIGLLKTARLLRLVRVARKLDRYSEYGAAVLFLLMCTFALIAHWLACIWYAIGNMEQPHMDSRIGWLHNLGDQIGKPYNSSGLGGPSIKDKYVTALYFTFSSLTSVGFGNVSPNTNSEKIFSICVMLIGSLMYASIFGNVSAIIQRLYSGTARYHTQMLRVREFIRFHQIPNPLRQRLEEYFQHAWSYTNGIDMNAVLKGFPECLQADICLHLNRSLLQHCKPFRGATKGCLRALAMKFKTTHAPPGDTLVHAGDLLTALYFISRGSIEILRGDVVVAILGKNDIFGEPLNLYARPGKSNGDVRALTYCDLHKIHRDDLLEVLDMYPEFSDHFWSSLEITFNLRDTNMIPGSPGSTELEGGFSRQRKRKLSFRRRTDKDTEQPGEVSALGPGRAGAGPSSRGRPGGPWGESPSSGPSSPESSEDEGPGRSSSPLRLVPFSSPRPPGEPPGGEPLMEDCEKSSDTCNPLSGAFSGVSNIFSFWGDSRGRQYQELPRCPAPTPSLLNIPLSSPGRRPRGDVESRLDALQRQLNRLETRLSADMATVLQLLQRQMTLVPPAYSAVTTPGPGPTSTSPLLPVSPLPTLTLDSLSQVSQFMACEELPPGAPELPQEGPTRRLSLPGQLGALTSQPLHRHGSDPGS
Description: The representative compounds of formula I were tested for inhibition of the human ether a go-go related gene (hERG) K+ channel using Qpatch HTX automated electrophysiology. 6-Point concentration-response curves were generated using three-fold serial dilutions from a maximum final test concentration of […] and the results are presented in Table 3.
Compounds were solubilised to 100 mM in DMSO before dilution in HBPS to 100 μM. […] Electrophysiological recordings were made from a Chinese Hamster Ovary cell line stably expressing the full-length hERG potassium channel. Single cell ionic currents were measured in whole-cell patch clamp configuration at room temperature (21-23° C.) using the Qpatch HTX platform (Sophion). Intracellular solution contained (mM): 120 KF, 20 KCl, 10 EGTA, 10 HEPES and was buffered to pH 7.3. […] Cells were clamped at a holding potential of −80 mV. Cells were stepped to +20 mV for 2 s then −40 mV for 3 s before returning to the holding potential. This sweep was repeated 10 times at 10 s intervals. hERG currents were measured from the tail step and referenced to the holding current. Compounds were then incubated for 2 minutes prior to a second measurement of ion channel current using an identical pulse train.

[6] = read-out: IL-2 restoration EC50
[7] = read-out: TNF-α restoration EC50

IC50 (A2B receptor [1]) | IC50 (A2A receptor [2]) | IC50 (A2A receptor [3]) | IC50 (A2B receptor [5]) | SMILES | pEC50 [4, 6] | pEC50 [4, 7] | pIC50 (hERG potassium channel)
586 nM | 88 nM | < 0.1 nM | 2 nM | CCc1c(C)nn2c(N)c(C#N)c(NCCc3ccn(C4CCC4CO)n3)nc12 (single isomer, unassigned; (-)) [Example 79, (−)-7-amino-3-ethyl-5-((2-(1-(2-(hydroxymethyl)cyclobutyl)-1H-pyrazol-3-yl)ethyl)amino)-2-methylpyrazolo[1,5-a]pyrimidine-6-carbonitrile] | 8.66 | 8.85 | < 4.00
429 nM | 181 nM | – | – | CCc1c(C)nn2c(N)c(C#N)c(NCCc3cccc(CCCO)n3)nc12 [Example 155, 7-amino-3-ethyl-5-((2-(6-(3-hydroxypropyl)pyridin-2-yl)ethyl)amino)-2-methylpyrazolo[1,5-a]pyrimidine-6-carbonitrile] | 8.44 | 8.49 | < 4.00
